The NIST ThermoML archive (doi:10.1016/j.tca.2017.11.006)
± gives the expanded uncertainty stated by the source.

Row | Normal melting temperature (Crystal 1, DTA) [°C] | Compound | Triple point temperature (Crystal 2, DSC) [K]
1 | – | [K+].[O-][Cl+3]([O-])([O-])[O-] [potassium perchlorate] | 579.15 ± 2
2 | 662.00 ± 2 | [Al] [aluminum] | –
